The source of these data is patent publication US8785473B2, “Plasminogen activator inhibitor-1 inhibitor” (Renascience Co., Ltd., priority 2009, dated 2014).

Assay [1] concerns rat model of ferric chloride-induced thrombosis. Briefly: Test Example 3: antithrombotic effect confirmation test in a rat model of ferric chloride-induced thrombosis. To be noted: SD rats, 0.3 mg/kg or 1 mg/kg orally 2 hours before operation, compared to the vehicle group (FIG. 1). In kind it is in vivo. An excerpt: The antithrombotic effect of each of compounds (4), (13), (68), and (79) prepared in Examples 4, 13, 68, and 79 (hereinafter referred to as a test compound) was confirmed using a rat model of ferric chloride-induced thrombosis.
Male 9-week-old SD rats (Japan SLC) were used, and divided into a vehicle group and a test compound group (each having n=10). Two hours before the operation for performing a test, in the test compound group, a 0.5% aqueous sodium carboxymethylcellulose (CMC) solution obtained by suspending a test compound in a mortar was added so that the test compound was orally administered in an amount of 0.3 mg/kg or 1 mg/kg. In the vehicle group, a 0.5% CMC aqueous solution that contained no test compound was orally administered. Two hours after oral administration, the rats in each group were anesthetized using […]., and the following operations were performed on a heat pad that had been kept at 38° C.
An incision was made on the cervical skin, and the left carotid artery was exposed in such a manner that the cervical skeletal muscle was not injured. The adhesion tissue was carefully peeled off. Silk thread was placed over the carotid artery, and filter paper was put on the backside of the carotid artery to prevent effusion and facilitate experiment operations. A semicircular tube 5 mm in length (SP 110, inside diameter: 1.5 mm, produced by Natsume Seisakusho Co., Ltd.) was placed on the filter paper, and the blood vessel was placed in the tube. The carotid artery blood flow was measured using a cuff-type Doppler blood flow meter (inside diameter: 1 mm) placed at the periphery side, and recorded on a recorder (Graphtec WR3320) via an amplifier (Nihon Kohden, RMP-6004M). After the carotid artery blood flow was confirmed, filter paper (Whatman, No. 1, 2.5 mm×4.2 mm), to which 2 μL of physiological saline comprising 35% (w/w) ferric chloride was added dropwise, was wrapped around the origin of the carotid artery (the filter paper was positioned so that the length in the blood vessel circumferential direction was 4.2 mm). […]

Assay [2] concerns the target T1, PAI-1 (Homo sapiens, UniProt P05121). Briefly: Reference Test Example (2): evaluation of fibrinolytic action (fibrin plate, PAI-1 + t-PA). In kind it is biochemical. Also on record: purchased Molecular Innovations, Inc. (USA). To be noted: mixture of PAI-1, t-PA and test compound on fibrin plate, 18 hours, lysis area. As to the method: The fibrinolytic action of Compounds a and b were evaluated in accordance with the document (Matsuo, O. et al., Haemostasis, 16, 43-50 (1986)).
Specifically, an aqueous solution (containing 25 mM barbital-sodium, 50 mM NaCl, and 25 mM CaCl2) containing a concentration of 1.5 mg/mL of fibrinogen (produced by Organon Teknica) was added, on a 9 cm-plate, to thrombin dissolved in 0.2 mL of physiological saline (10NIH U/mL: produced by Mochida Pharmaceutical Co., Ltd.), and the mixture was allowed to stand at room temperature for 2 hours. Using this mixture, fibrinolysis assay was conducted.
Namely, a mixture of PAI-1, t-PA, and a test compound was added dropwise to the plate and incubated at room temperature for 18 hours. Then, fibrinolysis due to plasminogen activation was measured from the lysis area on the plate.

Assay [3] deals with T1, PAI-1. As to the kind of experiment: Reference Test Example (1): measurement of PAI-1 inhibitory activity (S-2288), comparison with tiplaxtinin. In kind it is biochemical. Details: purchased Molecular Innovations, Inc. (USA). To be noted: concentrations of 35 μM and 50 μM (FIG. 2). As to the method:
The final mixture contained 100 mM Tris-HCl (pH 8), 30 mM NaCl, 1% DMSO, 0.1% Tween 80, 67 nM PAI-1, 9.8 nM t-PA, 1 mM S-2288, and test compound a or b (20, 35, or 50 μM).
[…] P-nitroaniline removed from the chromogenic substrate (S-2288) by t-PA action was measured using a spectrophotometer at an absorbance of 405 nm at 5-minute intervals for 30 minutes.
Comparative tests were carried out in the same manner using, in place of the above test compounds, a compound (tiplaxtinin) of the formula below that is used as an antithrombotic drug in US clinical trials (concentration: 20, 35, and 50 μM).
FIGS. 2 (A), (B), and (C) show PAI-1 activity (%) when compound a (concentrations: 20, 35, and 50 μM), compound b (concentrations: 20, 35, and 50 μM), and tiplaxtinin (comparative compound) (concentrations: 20, 35, and 50 μM) were added, respectively. The results reveal that compounds a and b had higher PAI-1 activity inhibitory action at concentrations of 35 μM and 50 μM than tiplaxtinin (comparative compound) (PAI-1 inhibitory activity).

In assay [4] the test system is mouse model with pulmonary fibrosis artificially induced by bleomycin. Briefly: Reference Test Example (3): effects on bleomycin-induced pulmonary fibrosis. In kind it is in vivo. The settings on record: bleomycin mice, 200 mg/kg p.o. twice/day for 14 days. As to the method: A C57BL/6 mouse (male, body weight: 19 to 21 g) was intraperitoneally anesthetized with pentobarbital, and an incision was made on the cervical organ. Ten mice were used as controls. Bleomycin (produced by Nippon Kayaku Co., Ltd.) (1.5 U/kg) lysed in physiological saline was endotracheally administered to each of the control mice (n=10) twice a day for 14 days. On the other hand, the test mice were subjected to forcible oral administration of compound b (200 mg/kg), suspended in a 0.5% carboxymethyl cellulose aqueous solution, twice a day for 14 days, in addition to the above endotracheal administration. Then, the lung tissues taken from these control mice and test mice were analyzed, and further assayed for hydroxyproline level. The hydroxyproline level in the lung tissues was measured as the hydrolysate level of the lung tissues, according to the method of Kivirikko et al. (Anal. Biochem. 19, 249-255 (1967)). The level (severity) of pulmonary fibrosis was scored from 0 to 8, based on the method of Ashcort et al. (J. Clin. Pathol. 41, 467-470 (1988)). Further, the control mice and the test mice were assayed for plasma PAI-1 activity (ng/mL).

Assay [5] addresses T1, PAI-1. Briefly: biochemical. The settings on record: read-out: PAI-1 activity %.
Procedure: The final mixture contained 50 mM Tris-HCl (pH 8), 150 mM NaCl, 1% DMSO, 0.1% PEG-6000, 0.2 mM CHAPS, 5 nMPAI-1, 2 nM t-PA, 0.2 mM Spectrozyme t-PA synthetic substrate, and the compound (10 μM or 2.5 μM).

Each structure is given as a SMILES string. Marks after values point to notes of the source that are not given here.

T1 sequence (P05121 24-402): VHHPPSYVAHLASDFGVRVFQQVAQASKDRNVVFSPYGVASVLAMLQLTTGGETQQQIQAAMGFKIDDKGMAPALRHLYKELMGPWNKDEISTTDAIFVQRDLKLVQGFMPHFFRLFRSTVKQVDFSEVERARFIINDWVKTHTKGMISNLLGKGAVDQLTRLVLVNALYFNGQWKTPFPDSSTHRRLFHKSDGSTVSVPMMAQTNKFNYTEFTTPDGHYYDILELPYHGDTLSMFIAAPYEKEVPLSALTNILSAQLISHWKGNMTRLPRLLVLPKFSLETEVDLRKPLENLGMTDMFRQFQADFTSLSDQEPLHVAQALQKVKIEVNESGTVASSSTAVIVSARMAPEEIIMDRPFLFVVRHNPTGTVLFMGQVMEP

For the compound `O=C(Nc1ccc(Cl)cc1C(=O)O)c1cccc(C2=CCCCC2)c1` [Example 79, 5-chloro-2-({[3-(cyclohex-1-en-1-yl)phenyl]carbonyl}amino)benzoic acid], the “initial occlusion time (antithrombotic effect)” value (from here on “initial occlusion time”) in assay [1] was “significantly prolonged”.

As for `CCC(CC(=O)Nc1scc(-c2cccs2)c1C(=O)O)C(=O)Nc1scc(-c2cccs2)c1C(=O)O` (stereo not shown) [compound b, 2-[3-(3′-carboxy-4′-thienylthiophen-2′-ylcarbamoyl)-pentanoylamino]-4-thienylthiophen-3-carboxylic acid], at PAI-1 [2], the fibrinolytic action entry is listed as “inhibit the suppression of fibrinolysis caused by PAI-1”. At PAI-1 [3], the “PAI-1 activity inhibitory action compared with tiplaxtinin” value was “higher”. For the same compound, in assay [4] (n=10, mean±SE), the “Hydroxyproline level in the lung tissues” value is 204.2 ± 9.5^b μg/lung and the “Plasma PAI-1 activity” value is 1.2 ± 0.1^b ng/mL. The compound further came in with a fibrosis score in assay [4] (scored from 0 to 8, bleomycin alone 4.7±0.17) of 2.9±0.42.

As to `CC(C(=O)Nc1ccc(Cl)cc1C(=O)O)(c1ccccc1)c1ccccc1` [Example 39, 5-chloro-2-[(2,2-diphenylpropanoyl)amino]benzoic acid], at PAI-1 [5], the activity at 2.5 µM was 88.6% and the activity at 10 µM was determined as 22.1%.

Regarding `O=C(COc1ccc(-c2ccccc2)cc1)Nc1ccc(-c2ccoc2)cc1C(=O)O` [Example 46, 2-{[(biphenyl-4-yloxy)acetyl]amino}-5-(furan-3-yl)benzoic acid], on PAI-1 [5], the activity at 2.5 µM amounted to 69.9% and the activity at 10 µM came to 0.4%.

In the case of `O=C(COc1cccc(-c2ccoc2)c1)Nc1ccc(Cl)cc1C(=O)O` [Example 13, 5-chloro-2-({[3-(furan-3-yl)phenoxy]acetyl}amino)benzoic acid], in assay [1], the “initial occlusion time” value is on record as “significantly prolonged”.

Regarding `O=C(Nc1ccc(Cl)cc1C(=O)O)c1cccc(-c2ccccc2)c1` [Example 4, 2-[(biphenyl-3-ylcarbonyl)amino]-5-chlorobenzoic acid], the “initial occlusion time” value in assay [1] is “significantly prolonged”.

Turning to `CCC(CC(=O)Nc1scc(-c2ccccc2)c1C(=O)O)C(=O)Nc1scc(-c2ccccc2)c1C(=O)O` (stereo not shown) [compound a, 2-[3-(3′-Carboxy-4′-phenylthiophen-2′-ylcarbamoyl)-pentanoylamino]-4-phenylthiophen-3-carboxylic acid], on PAI-1 [2], the fibrinolytic action entry is recorded as “inhibit the suppression of fibrinolysis caused by PAI-1”. In addition, the “PAI-1 activity inhibitory action compared with tiplaxtinin” value at PAI-1 [3] is given as “higher”.

As for `O=C(COc1cccc(-c2ccccc2)c1)Nc1ccc(-c2ccccc2)cc1C(=O)O` [Example 45, 4-{[(biphenyl-3-yloxy)acetyl]amino}biphenyl-3-carboxylic acid], on PAI-1 [5], the activity at 2.5 µM was 76.9% and the activity at 10 µM was 0.9%.
